The text below walks through data of ChEMBL document CHEMBL3507680, “University of Dundee, Gates Library screen for HepG2 cell viability”.

The data set can be described thus: Human HepG2 cell viability assay in 384 well format. It counts as toxicity, cell-based. Further details: dose 125 nL, time 70.5 hour; concentration not given beside the values. The settings on record: HepG2 cells, read-out: Inhibition.
Consider `COc1cccc(CNC(=O)NC2(c3nc(C)no3)CCCCC2)c1`, for which the cytotoxicity at 70.5 h worked out at 13.3%.

Consider `COc1cccc2c1OCC(CNC(=O)CSc1ccccn1)C2` (stereo not drawn), for which the cytotoxicity at 70.5 h was -6.38%.

For `O=C(Nc1ccc(F)c(Cl)c1)N1CCCN([C@H]2COC[C@@H]2O)CC1`, the cytotoxicity at 70.5 h is -14.1%.

On to `O=C(c1ccsc1)N1CC[C@@H](N2CCOCC2)[C@@H]1Cc1ccccc1`, for which the cytotoxicity at 70.5 h is -11.8%.

As for `CCN1CCOC(CNCc2ccc(C)s2)C1` (stereo not drawn), the cytotoxicity at 70.5 h was -4.21%.

In the case of `Cc1nc(N(C)C)nc(NCCc2cnccn2)c1C`, the cytotoxicity at 70.5 h was -1.68%.

As for `Cn1cc(C(=O)N2CCCC2c2ccc3c(c2)OCO3)ccc1=O` (stereo not drawn), the cytotoxicity at 70.5 h is -1.44%.

For `CC(C)c1cc(N(C)Cc2cc(C3CC3)on2)n2nccc2n1`, the cytotoxicity at 70.5 h is -8.41%.

On to `c1cnc(-c2cnc(N3CCCCC3)nc2C2CCCO2)cn1` (stereo not drawn), for which the cytotoxicity at 70.5 h is -5.56%.

Turning to `CNS(=O)(=O)Cc1ccc(CNC(=O)Nc2cccnc2)cc1`, the cytotoxicity at 70.5 h was 13.3%.

For the compound `CCc1ccccc1OCCN(C)C(=O)CCN1CCCO1`, the cytotoxicity at 70.5 h is -3.75%.

In the case of `Cc1nc(O)cc([C@@H]2CN(S(=O)(=O)N(C)C)C[C@H]2c2ccccc2F)n1`, the cytotoxicity at 70.5 h is -8.96%.

For `CCc1ccc2ncn(Cc3ncc[nH]3)c(=O)c2c1`, the cytotoxicity at 70.5 h was -18.6%.

Consider `C/C=C(\C)CN1C[C@H](NC(=O)c2cc[nH]c2C)[C@@H](C2CC2)C1`, for which the cytotoxicity at 70.5 h came out at 10.6%.

Turning to `Cn1ccc2c(C(=O)N3CCN(C(=O)C4CCCC4)CC3)cccc21`, the cytotoxicity at 70.5 h is -5.41%.

On to `O=c1[nH]c(N2CCN(C3CC3)CC2)nc2c1cnn2-c1ccccc1`, for which the cytotoxicity at 70.5 h is -6.97%.

In the case of `Cc1nc(CN(C)C(=O)Nc2cccc(COC(C)C)c2C)no1`, the cytotoxicity at 70.5 h was -4.14%.

As for `CC1=N[C@@]2(CC[C@@H]3CN(S(=O)(=O)C4CC4)C[C@@H]32)C(=O)N1CC(C)C`, the cytotoxicity at 70.5 h worked out at 10.8%.

Consider `Cc1oc(-c2ccoc2)nc1CN1CCCCC1CCn1cccn1` (stereo not drawn), for which the cytotoxicity at 70.5 h was -3.32%.

For `COc1ccc(CNC(C)c2cn[nH]c2C)cc1` (stereo not drawn), the cytotoxicity at 70.5 h stood at 14.1%.

For `CCOC(=O)N1CC(=O)N(CCc2ccccc2)CC(O)C1` (stereo not drawn), the cytotoxicity at 70.5 h turned out to be 5.59%.

Consider `O=C(NCCCNc1ccc(C(F)(F)F)cn1)c1ccc2c(c1)OCO2`, for which the cytotoxicity at 70.5 h is -9.51%.

For the compound `Cc1cc(C)c(CNC(=O)NCCNc2ncccn2)c(=O)[nH]1`, the cytotoxicity at 70.5 h was -12.7%.

In the case of `O=C(O)c1ccc(=O)n(CC(c2ccc(Cl)cc2)N2CCCCCC2)c1` (stereo not drawn), the cytotoxicity at 70.5 h is -8.13%.

Regarding `O=C(NCCc1cccnc1)NCCc1cccs1`, the cytotoxicity at 70.5 h is 2.09%.

Consider `Cn1cccc1C(=O)NS(=O)(=O)c1cnn(-c2ccccc2F)c1`, for which the cytotoxicity at 70.5 h is 11.6%.

For the compound `Cn1ccnc1CN1CCC2(CC1)COCCN(S(C)(=O)=O)C2`, the cytotoxicity at 70.5 h was -7.67%.

`CCN(CC1CN(Cc2ccccn2)CCO1)c1cccnn1` (stereo not drawn): the cytotoxicity at 70.5 h was -9.99%.

Regarding `CC(C)c1nc(C(=O)N(C)c2ccc(Br)cn2)cs1`, the cytotoxicity at 70.5 h is -8.09%.

As to `CC(NC(=O)NCCCN(C)S(C)(=O)=O)c1ccc(F)cc1` (stereo not drawn), the cytotoxicity at 70.5 h came out at 16.8%.

Turning to `CCn1c(C)nnc1CN(C)C1CCN(Cc2cnc(C)cn2)C1` (stereo not drawn), the cytotoxicity at 70.5 h is -0.885%.

With `COc1ccc(C(=O)N2C[C@@H](O)[C@H](NCCc3ncccc3C)C2)cc1`, the cytotoxicity at 70.5 h is -10.6%.

Regarding `CN(C(=O)COc1ccc(F)cc1)[C@@H]1CC[C@@H](n2ccnc2)[C@@H]1O`, the cytotoxicity at 70.5 h is -4.21%.

For the compound `CC(C)c1cc(C(=O)NCCc2nc3c(s2)CCC3)n(C)n1`, the cytotoxicity at 70.5 h was found to be 8.71%.

On to `O=C(C[C@@H]1COC[C@H]2CN(C3CCCC3)C[C@@H]12)NCc1cccnc1`, for which the cytotoxicity at 70.5 h was -8.82%.

As for `Cc1cc(C(=O)N2CCCC(n3cncn3)C2)c(C)n1CC1CC1` (stereo not drawn), the cytotoxicity at 70.5 h was -2.26%.

As to `COc1cccc(S(=O)(=O)N2CCOC(C)(C(N)=O)C2)c1` (stereo not drawn), the cytotoxicity at 70.5 h was -3.76%.

In the case of `CC(C)NCc1nc(-c2ccc3c(c2)OCO3)c[nH]1`, the cytotoxicity at 70.5 h is -11.7%.
